pIC50: −log10 of the molar value. Like-named read-outs stand apart in the source and are kept apart here.
Assays:
various metalloproteases [1] = test: in vitro inhibition of various metalloproteases (Table 4); format: biochemical; settings: Table 4, in vitro
Protocol: (§1) Inhibition is indicated as IC50 with the following key: A=IC50 less than 50 nM, B=IC50 greater than 50 nM, but less than 1000 nM, C=IC50 greater than […], but less than 20,000 nM, and D=IC50 greater than 20,000 nM.

hADAM-10 = target: T1, hADAM-10 (UniProt O14672); test: ADAM-10 enzyme assay: cleavage of fluorogenic 10-residue peptide (DABCYL/EDANS); format: biochemical, human; settings: Table 4, in vitro
T1 sequence (O14672 1-748): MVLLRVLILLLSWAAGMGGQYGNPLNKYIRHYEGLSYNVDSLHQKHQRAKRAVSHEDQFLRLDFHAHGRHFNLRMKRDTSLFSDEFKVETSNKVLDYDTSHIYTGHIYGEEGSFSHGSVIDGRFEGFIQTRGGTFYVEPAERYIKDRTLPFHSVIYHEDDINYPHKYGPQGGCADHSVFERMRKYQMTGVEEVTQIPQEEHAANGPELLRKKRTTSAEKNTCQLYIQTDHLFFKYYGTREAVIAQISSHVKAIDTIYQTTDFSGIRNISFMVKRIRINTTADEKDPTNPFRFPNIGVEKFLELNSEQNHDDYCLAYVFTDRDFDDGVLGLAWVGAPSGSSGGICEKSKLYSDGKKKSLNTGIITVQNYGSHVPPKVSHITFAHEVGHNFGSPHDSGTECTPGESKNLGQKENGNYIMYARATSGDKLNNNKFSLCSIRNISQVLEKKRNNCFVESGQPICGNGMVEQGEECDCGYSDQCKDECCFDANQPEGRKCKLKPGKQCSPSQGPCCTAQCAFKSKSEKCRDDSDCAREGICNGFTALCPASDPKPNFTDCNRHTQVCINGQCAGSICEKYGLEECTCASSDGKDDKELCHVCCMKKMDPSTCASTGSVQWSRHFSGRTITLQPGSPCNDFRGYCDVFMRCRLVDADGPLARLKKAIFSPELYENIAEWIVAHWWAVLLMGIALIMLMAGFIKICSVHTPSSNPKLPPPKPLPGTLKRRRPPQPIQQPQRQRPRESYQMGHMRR
Protocol: mADAM-10 or hADAM-10 activity was measured as the ability to cleave a 10-residue peptide (DABCYL-Leu-Leu-Ala-Gln-Lys-*-Leu-Arg-Ser-Ser-Arg-EDANS). […] Enzyme was diluted to a final active concentration of 5 nM in Buffer A (50 mM HEPES 8.0, 100 mM NaCl, 1 mM CaCl2 and 0.01% NP-40). Serial dilutions for compounds were performed ranging from 100 uM to 0.5 nM using a Beckman Biomek 2000 in polypropylene plates (Greiner). 20 μl of enzyme solution was added to 10 μl of compound in buffer A, and allowed to incubate for 15 min in 384 well black, Greiner, microtiter plates (#781076). 20 μl of substrate (12.5 uM in Buffer A) was then added, resulting in final reaction conditions of 2 nM ADAM-10, 5 μM substrate, and compound concentrations ranging from 20 uM to 0.1 nM. The reaction was incubated for 2 hr at RT, and fluorescence was measured at Ex355, Em460 on a Wallac Victor 2 fluorescence reader. For final analysis of potent inhibitors, a similar reaction was set up with a final active ADAM-10 concentration of 0.1 nM. This reaction was incubated for 16 hr at RT and fluorescence was read using identical conditions.
as §1

various metalloproteases [2] = target: various metalloproteases (Homo sapiens, UniProt P45452); test: in vitro inhibition of various metalloproteases (Table 4); format: biochemical; settings: MMP13; Table 4, in vitro
Protocol: as §1

various metalloproteases [3] = target: various metalloproteases (Homo sapiens, UniProt P08254); test: as above; format: biochemical; settings: MMP3; Table 4, in vitro
Sequence of various metalloproteases (Homo sapiens, UniProt P08254) (P08254 100-477): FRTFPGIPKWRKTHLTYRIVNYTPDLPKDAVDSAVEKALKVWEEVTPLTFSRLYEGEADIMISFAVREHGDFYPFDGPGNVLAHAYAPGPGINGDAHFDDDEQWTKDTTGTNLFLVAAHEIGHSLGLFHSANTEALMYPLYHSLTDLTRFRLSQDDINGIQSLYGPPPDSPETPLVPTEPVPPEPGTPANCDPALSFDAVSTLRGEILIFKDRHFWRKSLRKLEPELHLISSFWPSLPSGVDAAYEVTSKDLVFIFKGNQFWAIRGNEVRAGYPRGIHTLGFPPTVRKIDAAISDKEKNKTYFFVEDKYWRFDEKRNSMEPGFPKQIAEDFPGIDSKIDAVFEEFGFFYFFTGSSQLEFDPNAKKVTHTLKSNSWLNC
Protocol: as §1

various metalloproteases [4] = target: T2, various metalloproteases (Homo sapiens, UniProt P08253); test: as above; format: biochemical; settings: MMP2; Table 4, in vitro
T2 sequence (P08253 110-660): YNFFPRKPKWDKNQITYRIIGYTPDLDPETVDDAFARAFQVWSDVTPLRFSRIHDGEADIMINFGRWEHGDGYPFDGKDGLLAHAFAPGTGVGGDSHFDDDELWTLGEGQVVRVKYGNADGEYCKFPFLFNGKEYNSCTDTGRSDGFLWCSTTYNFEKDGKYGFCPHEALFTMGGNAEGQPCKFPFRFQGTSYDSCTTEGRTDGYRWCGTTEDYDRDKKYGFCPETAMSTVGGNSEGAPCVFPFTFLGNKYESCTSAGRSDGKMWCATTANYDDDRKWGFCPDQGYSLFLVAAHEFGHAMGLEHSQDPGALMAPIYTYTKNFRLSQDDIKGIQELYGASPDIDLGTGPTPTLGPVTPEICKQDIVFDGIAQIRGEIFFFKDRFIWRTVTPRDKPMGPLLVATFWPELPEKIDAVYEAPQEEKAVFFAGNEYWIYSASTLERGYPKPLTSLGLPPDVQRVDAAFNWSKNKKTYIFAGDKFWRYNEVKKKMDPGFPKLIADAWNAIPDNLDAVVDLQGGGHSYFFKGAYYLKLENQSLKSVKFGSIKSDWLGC
Protocol: as §1

| pIC50 (various metalloproteases [1]; MMP1, read-out: MMP1 IC50) | pIC50 (various metalloproteases [1]; MMP3, read-out: MMP3 IC50) | pIC50 (various metalloproteases [1]; MMP13, read-out: MMP13 IC50) | pIC50 (hADAM-10) | pIC50 (various metalloproteases [1]; MMP2, read-out: MMP2 IC50) | pIC50 (various metalloproteases [1]; MMP8, read-out: MMP8 IC50) | pIC50 (various metalloproteases [1]; MMP9, read-out: MMP9 IC50) | pIC50 (various metalloproteases [1]; TACE, read-out: TACE IC50) | pIC50 (various metalloproteases [2]) | pIC50 (various metalloproteases [3]) | pIC50 (various metalloproteases [4]) | Compound |
| --- | --- | --- | --- | --- | --- | --- | --- | --- | --- | --- | --- |
| 4.70 to 7.30 | 6.00 to 7.30 | > 7.30 | > 7.30 | – | – | – | – | – | – | – | N=C(N)NCCC[C@@H](NS(=O)(=O)c1ccc(Oc2ccc(F)cc2)nc1)C(=O)NO [Compound 68, N^2-({6-[(4-fluorophenyl)oxy]pyridin-3-yl}sulfonyl)-N^1-hydxoxy-D-argininamide] |
| 4.70 to 7.30 | 6.00 to 7.30 | > 7.30 | 6.00 to 7.30 | > 7.30 | – | – | – | – | – | – | N#Cc1ccc(C[C@@H](NS(=O)(=O)c2cc(F)c(Oc3ccc(F)cc3)c(F)c2)C(=O)NO)cc1 [Compound 72, 4-cyano-N^2-({3,5-difluoro-4-[(4-fluorophenyl)oxy]phenyl}sulfonyl)-N^1-hydroxy-D-phenylalaninamide] |
| > 7.30 | > 7.30 | > 7.30 | – | > 7.30 | – | – | – | – | – | – | 3-(1-{(Z)-[(aminocarbonyl)imino][(2-methoxyethyl)amino]methyl}piperidin-4-yl)-N^1-hydroxy-N^2-[(4-phenoxyphenyl)sulfonyl]alaninamide [Compound 44] |
| – | > 7.30 | > 7.30 | > 7.30 | > 7.30 | – | – | – | – | – | – | Cc1cc(C)cc(Oc2c(F)cc(S(=O)(=O)NC(C(=O)NO)C3CCNCC3)cc2F)c1 (centres unmarked) [Compound 99, N^2-[({4-[(3,5-dimethylphenyl)oxy]-3,5-difluorophenyl}sulfonyl)amino]-N^1-hydroxy-2-piperidin-4-ylacetamide] |
| 4.70 to 7.30 | 6.00 to 7.30 | > 7.30 | > 7.30 | > 7.30 | > 7.30 | > 7.30 | 6.00 to 7.30 | – | – | – | N=C(N)NCCC[C@@H](NS(=O)(=O)c1ccc(Oc2ccccc2)cc1)C(=O)NO [Compound 2, N^1-hydroxy-N^2-[(4-phenoxyphenyl)sulfonyl]-D-argininamide] |
| – | 4.70 to 7.30 | 6.00 to 7.30 | > 7.30 | > 7.30 | – | – | – | – | – | – | CN(C)CC[C@@H](NS(=O)(=O)c1cc(F)c(Oc2ccc(Cl)cc2)c(F)c1)C(=O)NO [Compound 89, (2R)-N^2-[({4-[(4-chlorophenyl)oxy]-3,5-difluorophenyl}sulfonyl)amino]-4-(dimethylamino)-N^1-hydroxybutanamide] |
| 6.00 to 7.30 | > 7.30 | > 7.30 | > 7.30 | > 7.30 | – | – | > 7.30 | – | – | – | N^6-[(E)-(cyanoimino)(propylamino)methyl]-N^1-hydroxy-N^2-[(4-phenoxyphenyl)sulfonyl]-D-lysinamide [Compound 23] |
| > 7.30 | – | – | > 7.30 | > 7.30 | – | – | 6.00 to 7.30 | – | – | – | NCCCC[C@@H](NS(=O)(=O)c1ccc(Oc2ccccc2)cc1)C(=O)NO [Compound 13, N^1-hydroxy-N^2-{[4-(phenyloxy)phenyl]sulfonyl}-D-lysinamide] |
| – | > 7.30 | > 7.30 | > 7.30 | – | – | – | – | – | – | – | O=C(NO)C(NS(=O)(=O)c1ccc(Oc2ccc(F)cc2)cc1)C1CCNCC1 (centres unmarked) [Compound 97, N^2-[({4-[(4-fluorophenyl)oxy]phenyl}sulfonyl)amino]-N^1-hydroxy-2-piperidin-4-ylacetamide] |
| – | – | – | > 7.30 | – | – | – | – | > 7.30 | 6.00 to 7.30 | > 7.30 | NCC1CCC(C[C@H](NS(=O)(=O)c2ccc(-c3cccc(F)c3)nc2)C(=O)NO)CC1 (some centres unmarked) [Compound 105, 3-[4-(aminomethyl)cyclohexyl]-N^2-{[6-(3-fluorophenyl)pyridin-3-yl]sulfonyl}-N^1-hydroxyalaninamide] |
| – | – | – | 4.70 to 7.30 | – | – | – | – | – | – | – | Cc1cc(C)cc(Oc2c(F)cc(S(=O)(=O)N[C@@H](CC3CCC(CN)CC3)C(=O)NO)cc2F)c1 (some centres unmarked) [Compound 106, 3-[4-(aminomethyl)cyclohexyl]-N^2-({4-[(3,5-dimethylphenyl)oxy]-3,5-difluorophenyl}sulfonyl)-N^1-hydroxyalaninamide] |
| 4.70 to 7.30 | > 7.30 | > 7.30 | > 7.30 | – | – | – | > 7.30 | – | – | – | 3-{1-[(Z)-(cyanoimino)(propylamino)methyl]piperidin-4-yl}-N^1-hydroxy-N^2-[(4-phenoxyphenyl)sulfonyl]alaninamide [Compound 41] |
| – | – | – | – | > 7.30 | – | – | – | – | – | – | CC(C)(SCC(=O)N1CCOCC1)[C@@H](NS(=O)(=O)c1cc(F)c(Oc2ccc(Cl)cc2)c(F)c1)C(=O)NO [Compound 91, N^2-({4-[(4-chlorophenyl)oxy]-3,5-difluorophenyl}sulfonyl)-N^1-hydroxy-3-[(2-morpholin-4-yl-2-oxoethyl)thio]-D-valinamide] |
